Laboratory results taken from patent US20210085640A1, “ACYLATED CATECHIN POLYPHENOLS AND METHODS OF THEIR USE FOR THE TREATMENT OF CANCER” (Flagship Pioneering Innovations V, Inc., priority 2018, published 2021).

Legend:
[1] = Stability in Simulated Gastric Fluid (SGF); format: in vitro ADME; conditions: SGF pH 1.6 with pepsin, 1 μM, 37° C.
Method: Stability of acylated active agents in Simulated Gastric Fluid (SGF). This assay was used to assess the stability of an acylated active agent in a stomach.
Medium was prepared by dissolving 2 g of sodium chloride in 0.6 L in ultrapure water (MilliQ®, Millipore Sigma, Darmstadt, Germany). The pH was adjusted to 1.6 with 1N hydrochloric acid, and the volume was then adjusted to 1 L with purified water.
60 mg FaSSIF powder (Biorelevant™, London, UK) were dissolved in 500 mL buffer (above). Pepsin was added (0.1 mg/mL) (Millipore Sigma, Darmstadt, Germany), and the solution was stirred. The resulting SGF media were used fresh for each experiment.
Test compounds were dissolved in DMSO stock to 1 mM. An aliquot of the DMSO stock solution was removed and diluted in the SGF Media in 15 mL falcon tubes to generate a total compound concentration of 1 μM. A 1 mL aliquot was immediately removed and diluted once with 1 volume of acetonitrile for T0 timepoint. The mixture was sealed and mixed at 37° C. in an incubator. Aliquots (1 mL) were removed at regular intervals and immediately quenched by the addition of 1 volume of acetonitrile. The resulting samples were analyzed by LC/MS to determine degradation rates

[2] = Fecal Incubation Stability; format: in vitro ADME; conditions: fecal slurry, anaerobic, 1 or 10 μM
Method: Fecal Incubation Stability. This assay was used to assess the stability of an acylated active agent in a large intestine. All experiments were performed in an anaerobic chamber containing 90% nitrogen, 5% hydrogen and 5% carbon dioxide. Fecal matter in a slurry (15% VW is added to 96 well plates containing YCFA media or other suitable media (1.6 mL). Compounds were added to each individual well to reach a final analyte concentration of 1 or 10 μM, and the material was mixed by pipetting. At set time points a sample was removed, quenched with acetonitrile, and analyzed by LC/MS.

[3] = tested on: T24 bladder cancer cells; test: Cancer cell survival (CellTiter-Glo), T24; format: cell-based; conditions: 72 h
Method in brief: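 Viability by CellTiter-Glo after 72 h compound treatment of T24 bladder cancer cells (4×10^3/well, plated the night before), nine concentration levels in triplicate. Percent survival normalised to untreated cells minus medium background, from which IC50 was determined.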

[4] = tested on: MCF7 breast cancer cells; test: Cancer cell survival (CellTiter-Glo), MCF7; format: cell-based; conditions: 72 h
Method in brief: (§1)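 CellTiter-Glo luminescence after 72 h compound exposure (37 C, 5% CO2; nine concentration levels, triplicate) of overnight-plated cells at 4×10^3 per well. IC50 calculated from survival % relative to untreated cells after medium-background subtraction.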

[5] = tested on: Daudi lymphoma cancer cells; test: Cancer cell survival (CellTiter-Glo), Daudi; format: cell-based; conditions: 72 h
Method in brief: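 Daudi cells (4×10^3/well) were exposed for 72 h at 37 °C to nine concentrations of compound, added as 10× solutions spanning 1 μM–10 mM (fatty acids) or 100 nM–1 mM (others). CellTiter-Glo luminescence gave % survival versus untreated, medium-blank corrected; IC50 derived.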

[6] = tested on: naïve CD4^+ T cells; test: Human Regulatory T Cell Differentiation Assay; format: cell-based; conditions: 6 days
Method: (§2) Peripheral blood mononuclear cells (PBMCs) from whole blood donated by health volunteers were separated by Ficoll-Paque gradient centrifugation and naïve CD4^+ T cells were subsequently isolated using magnet beads (EasySep™ Human Naïve CD4^+ T Cell Isolation Kit, Cambridge, Mass.). For regulatory T cell (Treg) differentiation assay, naïve CD4^+ T cells were cultured (1-10×10^4 cells) in CTS OpTmizer medium for 6 days and stimulated with 5 ng/ml TGF-β, 100 U/ml IL-2, and ImmunoCult™ Human […] T Cell Activator; Stemcell #10990) with/without Compounds. Cell viability was determined using a viability dye (eBioscience Fixable Viability Dye eFluor 780: ThermoFisher 65-0865-14) at 1:500 dilution. The cells were gated for Treg, defined as Live, CD11c^−, CD14^−, CD19^−, CD8^−, CD4^+, CD3^+, CD25^+, FOXP3^+. Percent (%) Tregs were calculated as percentage of CD4^+, CD25^+, FOXP3^+ cells over total CD4^+ T cells. Statistical analysis was performed with GraphPad Prism Software Using One-Way ANOVA.

[7] = tested on: A549 lung cancer cells; test: Cancer cell survival (CellTiter-Glo), A549; format: cell-based; conditions: 72 h
Method in brief: as §1

[8] = tested on: PC-3 prostate cancer cells; test: Cancer cell survival (CellTiter-Glo), PC-3; format: cell-based; conditions: PC-3 cells, 72 h
Method in brief: as §1

[9] = tested on: AGS stomach cancer cells; test: Cancer cell survival (CellTiter-Glo), AGS; format: cell-based; parameters: Cell survival at given concentration: unit not given here
Method in brief: as §1

[10] = tested on: HCT 116 colorectal cancer cells; test: Cancer cell survival (CellTiter-Glo), HCT 116; format: cell-based; conditions: HCT 116 cells, 72 h
Method in brief: as §1

[11] = tested on: A-431 skin cancer cells; test: Cancer cell survival (CellTiter-Glo), A-431; format: cell-based; parameters: Cell survival at given concentration: unit not given here; conditions: A-431 cells, 72 h
Method in brief: as §1

[12] = Human Regulatory T Cell Differentiation Assay; format: cell-based; conditions: human, primary naïve CD4+ T cells isolated from PBMCs, 3 mM, read-out: Cell viability % DMSO
Method: as §2

## CCCC(=O)O[C@H](C)CC(=O)Oc1ccc(/C=C/c2cc(OC(=O)C[C@@H](C)OC(=O)CCC)cc(OC(=O)C[C@@H](C)OC(=O)CCC)c2)cc1 [Compound 16, [4-[(E)-2-[3,5-bis[[(3R)-3-butanoyloxybutanoyl]oxy]phenyl]vinyl]phenyl] (3R)-3-butanoyloxy-butanoate]
[1]
  Assay 1 (SGF) (% Remaining @ 1 hours): C (>75% of the tested compound remaining)
[2]
  Assay 3 (% Remaining at 24 h): A (<25% of the tested compound remaining)

## O=C(O[C@@H]1Cc2c(O)cc(O)cc2O[C@@H]1c1cc(O)c(O)c(O)c1)c1cc(O)c(O)c(O)c1 [EGCG, epigallocatechin gallate]
[3]; 101 nM
  Cell survival at given concentration: 1.00
[3]; 318 nM
  Cell survival at given concentration: 0.97
[3]; 1 μM
  Cell survival at given concentration: 1.02
[3]; 3 μM
  Cell survival at given concentration: 1.01
[3]; 10 μM
  Cell survival at given concentration: 0.96
[3]; 32 μM
  Cell survival at given concentration: 0.58
[3]; 100 μM
  Cell survival at given concentration: 0.15
[3]; 316 μM
  Cell survival at given concentration: 0.03
[3]; 1000 μM
  Cell survival at given concentration: 0.03
[3]; Table 3.1, read-out: 1050
  IC50: 37.8 µM
[4]; 101 nM
  Cell survival at given concentration: 1.01
[4]; 318 nM
  Cell survival at given concentration: 0.99
[4]; 1 μM
  Cell survival at given concentration: 0.99
[4]; 3 μM
  Cell survival at given concentration: 0.97
[4]; 10 μM
  Cell survival at given concentration: 0.96
[4]; 32 μM
  Cell survival at given concentration: 0.77
[4]; 100 μM
  Cell survival at given concentration: 0.55
[4]; 316 μM
  Cell survival at given concentration: 0.51
[4]; 1000 μM
  Cell survival at given concentration: 0.11
[4]; Table 5.1
  IC50: 231 µM
[5]; 101 nM
  Cell survival at given concentration: 1.03
[5]; 318 nM
  Cell survival at given concentration: 1.02
[5]; 1 μM
  Cell survival at given concentration: 1.01
[5]; 3 μM
  Cell survival at given concentration: 0.97
[5]; 10 μM
  Cell survival at given concentration: 0.76
[5]; 32 μM
  Cell survival at given concentration: 0.31
[5]; 100 μM
  Cell survival at given concentration: 0.17
[5]; 316 μM
  Cell survival at given concentration: 0.00
[5]; 1000 μM
  Cell survival at given concentration: 0.00
[5]; Table 4.1
  IC50: 20.4 µM
[6]; 100 nM
  Cell viability % DMSO: = (90% ≥ ≤110%: =)
  Treg induction % DMSO: = (90% ≥ ≤110%: =)
[6]; 1 uM
  Cell viability % DMSO: = (90% ≥ ≤110%: =)
  Treg induction % DMSO: = (90% ≥ ≤110%: =)
[7]; 101 nM
  Cell survival at given concentration: 1.02
[7]; 318 nM
  Cell survival at given concentration: 1.05
[7]; 1 μM
  Cell survival at given concentration: 1.03
[7]; 3 μM
  Cell survival at given concentration: 1.04
[7]; 10 μM
  Cell survival at given concentration: 0.99
[7]; 32 μM
  Cell survival at given concentration: 0.77
[7]; 100 μM
  Cell survival at given concentration: 0.33
[7]; 316 μM
  Cell survival at given concentration: 0.21
[7]; 1000 μM
  Cell survival at given concentration: 0.01
[7]; Table 7.1
  IC50: 67.4 µM
[8]; 101 nM
  Cell survival at given concentration: 1.01
[8]; 318 nM
  Cell survival at given concentration: 0.99
[8]; 1 μM
  Cell survival at given concentration: 1.01
[8]; 3 μM
  Cell survival at given concentration: 0.97
[8]; 10 μM
  Cell survival at given concentration: 0.99
[8]; 32 μM
  Cell survival at given concentration: 0.82
[8]; 100 μM
  Cell survival at given concentration: 0.60
[8]; 316 μM
  Cell survival at given concentration: 0.51
[8]; 1000 μM
  Cell survival at given concentration: 0.10
[8]; Table 8.1
  IC50: 245 µM
[9]; 101 nM
  Cell survival at given concentration: 1.01
[9]; 318 nM
  Cell survival at given concentration: 1.02
[9]; 1 μM, Table 10.1
  Cell survival at given concentration: 1.05
[9]; 3 μM, Table 10.1
  Cell survival at given concentration: 1.02
[9]; 10 μM, Table 10.1
  Cell survival at given concentration: 0.90
[9]; 32 μM, Table 10.1
  Cell survival at given concentration: 0.49
[9]; 100 μM, Table 10.1
  Cell survival at given concentration: 0.20
[9]; 316 μM
  Cell survival at given concentration: 0.08
[9]; 1000 μM
  Cell survival at given concentration: 0.00
[9]; Table 10.1
  IC50: 33.2 µM
[10]; 101 nM
  Cell survival at given concentration: 1.05
[10]; 318 nM
  Cell survival at given concentration: 0.98
[10]; 1 μM
  Cell survival at given concentration: 1.00
[10]; 3 μM
  Cell survival at given concentration: 1.03
[10]; 10 μM
  Cell survival at given concentration: 1.00
[10]; 32 μM
  Cell survival at given concentration: 0.61
[10]; 100 μM
  Cell survival at given concentration: 0.25
[10]; 316 μM
  Cell survival at given concentration: 0.06
[10]; 1000 μM
  Cell survival at given concentration: 0.00
[10]; Table 6.1
  IC50: 46.3 µM
[11]; 101 nM
  Cell survival at given concentration: 1.02
[11]; 318 nM
  Cell survival at given concentration: 1.02
[11]; 1 μM
  Cell survival at given concentration: 1.02
[11]; 3 μM
  Cell survival at given concentration: 1.01
[11]; 10 μM
  Cell survival at given concentration: 1.04
[11]; 32 μM
  Cell survival at given concentration: 0.78
[11]; 100 μM
  Cell survival at given concentration: 0.38
[11]; 316 μM
  Cell survival at given concentration: 0.30
[11]; 1000 μM
  Cell survival at given concentration: 0.04
[11]; Table 9.1
  IC50: 81.9 µM

## CCC(=O)O [Propionic acid]
[12]
  viability at 6 days, 3 mM: 90 to 110%
[6]; Homo sapiens, CD4+ T, 144 h, 3 mM, read-out: Treg induction % DMSO
  activity at 3000 µM: > 130%

## CC(O)CC(=O)[O-].[Na+] (centres unmarked) [Sodium BHB]
[6]; 2 mM
  Cell viability % DMSO: = (90% ≥ ≤110%: =)
  Treg induction % DMSO: + (110% > ≤130%: +)
[6]; 20 mM
  Cell viability % DMSO: − (<90%: −)
  Treg induction % DMSO: = (90% ≥ ≤110%: =)
